Numbers after ± are expanded uncertainties.
Experiment: mn = molality of the nth substance listed, in mol/kg
Settings: 100 kPa, Liquid; for speed of sound: Frequency=3 MHz, Single path-length method; for mass density: Vibrating tube method

C[N+](C)(C)C[C@H](O)CC(=O)[O-] [(R)-3-hydroxy-4-(trimethylammonio)butanoate] + O
Settings | mass density [kg/m3] | speed of sound [m/s]
293.15 K, m1 = 0.0937 | 1001.09 ± 0.32 | 1492.4 ± 2
293.15 K, m1 = 0.1233 | 1001.98 ± 0.34 | 1495.2 ± 2.1
293.15 K, m1 = 0.1554 | 1002.94 ± 0.35 | 1498.3 ± 2.1
293.15 K, m1 = 0.1924 | 1004.04 ± 0.38 | 1501.8 ± 2.1
293.15 K, m1 = 0.2249 | 1004.99 ± 0.4 | 1504.9 ± 2.2
293.15 K, m1 = 0.2574 | 1005.94 ± 0.43 | 1507.9 ± 2.2
293.15 K, m1 = 0.276 | 1006.48 ± 0.44 | 1509.7 ± 2.3
293.15 K, m1 = 0.3064 | 1007.35 ± 0.46 | 1512.5 ± 2.3
298.15 K, m1 = 0.0497 | 998.57 ± 0.31 | 1502.3 ± 2
298.15 K, m1 = 0.0994 | 1000.06 ± 0.32 | 1506.9 ± 2
298.15 K, m1 = 0.1214 | 1000.71 ± 0.33 | 1508.9 ± 2.1
298.15 K, m1 = 0.1509 | 1001.58 ± 0.35 | 1511.6 ± 2.1
298.15 K, m1 = 0.2007 | 1003.03 ± 0.38 | 1516.1 ± 2.1
298.15 K, m1 = 0.2203 | 1003.6 ± 0.4 | 1517.8 ± 2.2
298.15 K, m1 = 0.2572 | 1004.66 ± 0.42 | 1521.2 ± 2.2
298.15 K, m1 = 0.3012 | 1005.91 ± 0.44 | 1525.1 ± 2.2
303.15 K, m1 = 0.0477 | 997.1 ± 0.31 | 1514.3 ± 2
303.15 K, m1 = 0.1029 | 998.75 ± 0.33 | 1519.2 ± 2
303.15 K, m1 = 0.1227 | 999.33 ± 0.34 | 1521 ± 2.1
303.15 K, m1 = 0.1531 | 1000.21 ± 0.35 | 1523.6 ± 2.1
303.15 K, m1 = 0.2046 | 1001.71 ± 0.41 | 1528.1 ± 2.3
303.15 K, m1 = 0.2174 | 1002.07 ± 0.39 | 1529.2 ± 2.2
303.15 K, m1 = 0.255 | 1003.14 ± 0.42 | 1532.4 ± 2.2
303.15 K, m1 = 0.3041 | 1004.51 ± 0.44 | 1536.7 ± 2.2
308.15 K, m1 = 0.0512 | 995.58 ± 0.31 | 1525.2 ± 2
308.15 K, m1 = 0.0938 | 996.84 ± 0.32 | 1528.8 ± 2
308.15 K, m1 = 0.1229 | 997.69 ± 0.33 | 1531.2 ± 2
308.15 K, m1 = 0.1447 | 998.32 ± 0.35 | 1533.1 ± 2.1
308.15 K, m1 = 0.1952 | 999.78 ± 0.37 | 1537.3 ± 2.1
308.15 K, m1 = 0.2238 | 1000.59 ± 0.39 | 1539.7 ± 2.1
308.15 K, m1 = 0.2282 | 1000.71 ± 0.39 | 1540.1 ± 2.1
308.15 K, m1 = 0.304 | 1002.84 ± 0.45 | 1546.4 ± 2.2
313.15 K, m1 = 0.0519 | 993.75 ± 0.31 | 1534.1 ± 2
313.15 K, m1 = 0.1012 | 995.21 ± 0.33 | 1538.2 ± 2
313.15 K, m1 = 0.1204 | 995.77 ± 0.33 | 1539.7 ± 2
313.15 K, m1 = 0.1428 | 996.42 ± 0.34 | 1541.5 ± 2.1
313.15 K, m1 = 0.1922 | 997.84 ± 0.37 | 1545.5 ± 2.1
313.15 K, m1 = 0.2107 | 998.36 ± 0.38 | 1547 ± 2.1
313.15 K, m1 = 0.2436 | 999.29 ± 0.41 | 1549.7 ± 2.2
313.15 K, m1 = 0.3053 | 1001 ± 0.45 | 1554.7 ± 2.2

O=C[C@H](O)[C@@H](O)[C@H](O)[C@H](O)CO [D-glucose] + O
298.15 K
Settings | mass density [kg/m3] | speed of sound [m/s]
m1 = 0.153 | – | 1507.3 ± 2.1
m1 = 1.13 | 1064.98 ± 2.7 | 1565.3 ± 2.1

[Cl-].[Na+] [sodium chloride] + O
298.15 K
Settings | mass density [kg/m3] | speed of sound [m/s]
m1 = 0.151 | 1003.43 ± 0.31 | 1507.5 ± 2
m1 = 1.021 | 1037.99 ± 0.52 | 1560.5 ± 2

C[N+](C)(C)[O-] [trimethylamine oxide] + O
m1 = 1.08
Settings | mass density [kg/m3] | speed of sound [m/s]
293.15 K | 1000.9 ± 0.38 | 1564.8 ± 2.3
298.15 K | 999.7 ± 0.38 | 1575.7 ± 2.3
303.15 K | 998.26 ± 0.38 | 1584.2 ± 2.3
308.15 K | 996.53 ± 0.38 | 1589.4 ± 2.3
313.15 K | 994.81 ± 0.38 | 1595.5 ± 2.3

O [water] + C[N+](C)(C)C[C@H](O)CC(=O)[O-]
m2 = 0
Settings | speed of sound [m/s]
298.15 K | 1497.7 ± 2
308.15 K | 1520.7 ± 2

O [water] + C[N+](C)(C)[O-]
m2 = 0
Settings | speed of sound [m/s]
298.15 K | 1497.7 ± 2
308.15 K | 1520.7 ± 2

O [water] + O=C[C@H](O)[C@@H](O)[C@H](O)[C@H](O)CO
Settings | speed of sound [m/s]
298.15 K, m2 = 0 | 1497.7 ± 2

O [water] + [Cl-].[Na+]
Settings | speed of sound [m/s]
298.15 K, m2 = 0 | 1497.7 ± 2

— the NIST ThermoML archive (doi:10.1016/j.jct.2018.01.021)
